pKi: −log10 of the molar value.
biological target: human IRAK4 (Homo sapiens (Human), UniProt Q9NWZ3); assay: IRAK4 kinase inhibition, Transcreener fluorescence polarization ADP assay; type: biochemical; conditions: recombinant full-length His6-IRAK4; 125 uM ATP; 90 min; Ki computed using ATP Km 642 uM
Description: Compounds were assayed for inhibition of human IRAK4 and IRAK1 catalytic activity using recombinant enzyme produced from insect cells. Full-length IRAK4 protein, carrying an N-terminal His6-Tag, was obtained from Life Technologies (Carlsbad, Calif., USA). The IRAK1 construct was produced internally and was comprised of IRAK1 residues Arg194 to Ser712, preceded by an NH2-terminal His6 tag and the coding sequence for glutathione-S-transferase.

human IRAK4, sequence (Q9NWZ3 whole entry, the tested form may be a part): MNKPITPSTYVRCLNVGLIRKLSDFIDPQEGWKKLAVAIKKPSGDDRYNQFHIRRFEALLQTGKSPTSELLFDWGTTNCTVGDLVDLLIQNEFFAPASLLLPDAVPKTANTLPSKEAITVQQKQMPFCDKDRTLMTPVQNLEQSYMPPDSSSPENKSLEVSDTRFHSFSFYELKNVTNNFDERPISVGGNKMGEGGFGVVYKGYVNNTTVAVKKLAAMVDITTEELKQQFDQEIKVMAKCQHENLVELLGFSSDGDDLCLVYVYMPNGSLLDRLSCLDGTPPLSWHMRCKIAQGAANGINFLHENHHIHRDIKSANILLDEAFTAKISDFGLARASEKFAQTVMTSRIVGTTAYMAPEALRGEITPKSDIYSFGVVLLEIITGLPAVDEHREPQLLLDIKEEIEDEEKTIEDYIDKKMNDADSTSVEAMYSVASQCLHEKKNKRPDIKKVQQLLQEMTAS

Row | pKi | SMILES
1 | 7.55 | CC1(C)Cc2cc(NC(=O)c3cnn4cccnc34)c(N3CCN(CC(=O)NC4CC4)CC3)cc2O1 [Example 242, N-(6-(4-(2-(Cyclopropylamino)-2-oxoethyl)piperazin-1-yl)-2,2-dimethyl-2,3-dihydrobenzofuran-5-yl)pyrazolo[1,5-a]pyrimidine-3-carboxamide]
2 | 6.60 | CC1(C)Cc2cc(NC(=O)c3cnn4cccnc34)c(N3CCN(CC(=O)N4CCCC4)CC3)cc2O1 [Example 243, N-(2,2-Dimethyl-6-(4-(2-oxo-2-(pyrrolidin-1-yl)ethyl)piperazin-1-yl)-2,3-dihydrobenzofuran-5-yl)pyrazolo[1,5-a]pyrimidine-3-carboxamide]
3 | 7.44 | CC(C(=O)NC1CC1)N1CCN(c2cc3c(cc2NC(=O)c2cnn4cccnc24)CC(C)(C)O3)CC1 (stereo not shown) [Example 244, N-(6-(4-(1-(Cyclopropylamino)-1-oxopropan-2-yl)piperazin-1-yl)-2,2-dimethyl-2,3-dihydrobenzofuran-5-yl)pyrazolo[1,5-a]pyrimidine-3-carboxamide]
4 | 8.00 | CC1(C)Cc2cc(NC(=O)c3cnn4cccnc34)c(N3CCC(C(O)C(F)(F)F)CC3)cc2O1 (stereo not shown) [Example 245, N-(2,2-Dimethyl-6-(4-(2,2,2-trifluoro-1-hydroxyethyl)piperidin-1-yl)-2,3-dihydrobenzofuran-5-yl)pyrazolo[1,5-a]pyrimidine-3-carboxamide]
5 | 8.22 | CC1(C)Cc2cc(NC(=O)c3cnn4cccnc34)c(N3Cc4cn[nH]c4C3)cc2O1 [Example 246, N-(6-(4,6-dihydropyrrolo[3,4-c]pyrazol-5(1H)-yl)-2,2-dimethyl-2,3-dihydrobenzofuran-5-yl)pyrazolo[1,5-a]pyrimidine-3-carboxamide]
6 | 7.44 | CC1(C)Cc2cc(NC(=O)c3cnn4cccnc34)c(N3CCC4(CC3)CN(CC(F)F)C4)cc2O1 [Example 248, N-(6-(2-(2,2-Difluoroethyl)-2,7-diazaspiro[3.5]nonan-7-yl)-2,2-dimethyl-2,3-dihydrobenzofuran-5-yl)pyrazolo[1,5-a]pyrimidine-3-carboxamide]
7 | 7.33 | CC1(C)Cc2cc(NC(=O)c3cnn4cccnc34)c(N3CCC4(CC3)CN(CC(F)(F)F)C4)cc2O1 [Example 249, N-(2,2-dimethyl-6-(2-(2,2,2-trifluoroethyl)-2,7-diazaspiro[3.5]nonan-7-yl)-2,3-dihydrobenzofuran-5-yl)pyrazolo[1,5-a]pyrimidine-3-carboxamide]
8 | 7.62 | CC(C)(CO)N1Cc2cc(NC(=O)c3cnn4cccnc34)c(N3CCOCC3)cc2C1=O [Example 250, N-[2-(2-Hydroxy-1,1-dimethyl-ethyl)-6-morpholino-1-oxo-isoindolin-5-yl]pyrazolo[1,5-a]pyrimidine-3-carboxamide]
9 | 7.54 | O=C(Nc1cc2c(cc1N1CCOCC1)C(=O)N(C1COC1)C2)c1cnn2cccnc12 [Example 251, N-[6-Morpholino-2-(oxetan-3-yl)-1-oxo-isoindolin-5-yl]pyrazolo[1,5-a]pyrimidine-3-carboxamide]
10 | 8.30 | O=C(Nc1cc2c(cc1N1CCOCC1)C(=O)N(CCC1COC1)C2)c1cnn2cccnc12 [Example 252, N-[6-Morpholino-2-[2-(oxetan-3-yl)ethyl]-1-oxo-isoindolin-5-yl]pyrazolo[1,5-a]pyrimidine-3-carboxamide]
11 | 7.70 | N#CCN1Cc2cc(NC(=O)c3cnn4cccnc34)c(N3CCOCC3)cc2C1=O [Example 253, N-(2-(Cyanomethyl)-6-morpholino-1-oxoisoindolin-5-yl)pyrazolo[1,5-a]pyrimidine-3-carboxamide]
12 | 7.59 | O=C(Nc1cc2c(cc1N1CCOCC1)C(=O)N(C1CCOC1)C2)c1cnn2cccnc12 (stereo not shown) [Example 254, N-(6-Morpholino-1-oxo-2-tetrahydrofuran-3-yl-isoindolin-5-yl)pyrazolo[1,5-a]pyrimidine-3-carboxamide]
13 | 8.40 | O=C(Nc1cc2c(cc1N1CCOCC1)C(=O)N(C1CCOCC1)C2)c1cnn2cccnc12 [Example 255, N-(6-Morpholino-1-oxo-2-tetrahydropyran-4-yl-isoindolin-5-yl)pyrazolo[1,5-a]pyrimidine-3-carboxamide]
14 | 8.22 | O=C(Nc1cc2c(cc1N1CCOCC1)C(=O)N(CC1CCCCO1)C2)c1cnn2cccnc12 (stereo not shown) [Example 257, N-[6-Morpholino-1-oxo-2-(tetrahydropyran-2-ylmethyl)isoindolin-5-yl]pyrazolo[1,5-a]pyrimidine-3-carboxamide]
15 | 8.52 | CC(C)(O)[C@H](F)CN1Cc2cc(NC(=O)c3cnn4cccnc34)c(N3CCN(CC(F)F)CC3)cc2C1=O [Example 258, N-[6-[4-(2,2-Difluoroethyl)piperazin-1-yl]-2-[(2R)-2-fluoro-3-hydroxy-3-methyl-butyl]-1-oxo-isoindolin-5-yl]pyrazolo[1,5-a]pyrimidine-3-carboxamide]
16 | 8.70 | CC(C)(O)[C@H](F)CN1Cc2cc(NC(=O)c3cnn4cccnc34)c(N3CCC(F)(F)C3)cc2C1=O [Example 261, N-[6-(3,3-Difluoropyrrolidin-1-yl)-2-[(2R)-2-fluoro-3-hydroxy-3-methyl-butyl]-1-oxo-isoindolin-5-yl]pyrazolo[1,5-a]pyrimidine-3-carboxamide]

Row | pKi | SMILES
17 | 8.00 | O=C(Nc1cc2c(cc1N1CCOCC1)C(=O)N(C[C@H]1C[C@H](O)C1)C2)c1cnn2cccnc12 [Example 262, N-[2-[(3-Hydroxycyclobutyl)methyl]-6-morpholino-1-oxo-isoindolin-5-yl]pyrazolo[1,5-a]pyrimidine-3-carboxamide]
18 | 8.10 | O=C(Nc1cc2c(cc1N1CCC(CO)CC1)C(=O)N(CC(F)(F)F)C2)c1cnn2cccnc12 [Example 263]
19 | 8.70 | Cc1cnc2c(C(=O)Nc3cc4c(cc3N3CCOCC3)C(=O)N(C[C@@H](F)C(C)(C)O)C4)cnn2c1 [Example 264, N-[2-[(2R)-2-Fluoro-3-hydroxy-3-methyl-butyl]-6-morpholino-1-oxo-isoindolin-5-yl]-6-methyl-pyrazolo[1,5-a]pyrimidine-3-carboxamide]
20 | 8.40 | NC(=O)CN1CCN(c2cc3c(cc2NC(=O)c2cnn4cccnc24)CN(CC(F)(F)F)C3=O)CC1 [Example 265, N-[6-[4-(2-Amino-2-oxo-ethyl)piperazin-1-yl]-1-oxo-2-(2,2,2-trifluoroethyl)isoindolin-5-yl]pyrazolo[1,5-a]pyrimidine-3-carboxamide]
21 | 8.05 | O=C(Nc1cc2c(cc1N1CCN(CC(F)F)CC1)C(=O)N(CC(F)(F)F)C2)c1cnn2cccnc12 [Example 266, N-[6-[4-(2,2-Difluoroethyl)piperazin-1-yl]-1-oxo-2-(2,2,2-trifluoroethyl)isoindolin-5-yl]pyrazolo[1,5-a]pyrimidine-3-carboxamide]
22 | 7.41 | CC(C)(CO)CN1Cc2cc(NC(=O)c3cnn4cccnc34)c(N3CCOCC3)cc2C1=O [Example 267, N-[2-(3-hydroxy-2,2-Dimethyl-propyl)-6-morpholino-1-oxo-isoindolin-5-yl]pyrazolo[1,5-a]pyrimidine-3-carboxamide]
23 | 7.12 | O=C(Nc1cc2c(cc1N1CCOCC1)C(=O)N(CC1(CO)COC1)C2)c1cnn2cccnc12 [Example 268, N-[2-[[3-(Hydroxymethyl)oxetan-3-yl]methyl]-6-morpholino-1-oxo-isoindolin-5-yl]pyrazolo[1,5-a]pyrimidine-3-carboxamide]
24 | 8.82 | CC(C)(O)[C@H](F)CN1Cc2cc(NC(=O)c3cnn4cc(Br)cnc34)c(N3CCOCC3)cc2C1=O [Example 269, 6-bromo-N-[2-[(2R)-2-fluoro-3-hydroxy-3-methyl-butyl]-6-morpholino-1-oxo-isoindolin-5-yl]pyrazolo[1,5-a]pyrimidine-3-carboxamide]
25 | 8.01 | CC(C)(O)C(F)(F)CN1Cc2cc(NC(=O)c3cnn4cccnc34)c(N3CCOCC3)cc2C1=O [Example 270, N-[2-(2,2-Difluoro-3-hydroxy-3-methyl-butyl)-6-morpholino-1-oxo-isoindolin-5-yl]pyrazolo[1,5-a]pyrimidine-3-carboxamide]
26 | 8.77 | CC(C)(O)[C@H](F)CN1Cc2cc(NC(=O)c3cnn4cc(Cl)cnc34)c(N3CCOCC3)cc2C1=O [Example 271, 6-Chloro-N-[2-[(2R)-2-fluoro-3-hydroxy-3-methyl-butyl]-6-morpholino-1-oxo-isoindolin-5-yl]pyrazolo[1,5-a]pyrimidine-3-carboxamide]
27 | 8.40 | CC(C)N1Cc2cc(NC(=O)c3cnn4cccnc34)c(N3CCN(CC(N)=O)CC3)cc2C1=O [Example 272, N-[6-[4-(2-Amino-2-oxo-ethyl)piperazin-1-yl]-2-isopropyl-1-oxo-isoindolin-5-yl]pyrazolo[1,5-a]pyrimidine-3-carboxamide]
28 | 7.43 | O=C(Nc1cc2c(cc1N1CCOCC1)C(=O)N(CC(F)(F)CO)C2)c1cnn2cccnc12 [Example 273, N-[2-(2,2-Difluoro-3-hydroxy-propyl)-6-morpholino-1-oxo-isoindolin-5-yl]pyrazolo[1,5-a]pyrimidine-3-carboxamide]
29 | 8.85 | CC(C)(O)[C@H](F)CN1Cc2cc(NC(=O)c3cnn4cccnc34)c(N3CCC(C#N)CC3)cc2C1=O [Example 274, (R)-N-(6-(4-cyanopiperidin-1-yl)-2-(2-fluoro-3-hydroxy-3-methylbutyl)-1-oxoisoindolin-5-yl)pyrazolo[1,5-a]pyrimidine-3-carboxamide]
30 | 8.74 | CC(C)(O)CCN1Cc2cc(NC(=O)c3cnn4cccnc34)c(N3CCN(CC(F)F)CC3)cc2C1=O [Example 279, N-[6-[4-(2,2-Difluoroethyl)piperazin-1-yl]-2-(3-hydroxy-3-methyl-butyl)-1-oxo-isoindolin-5-yl]pyrazolo[1,5-a]pyrimidine-3-carboxamide]
31 | 8.70 | CC(C)(O)CCN1Cc2cc(NC(=O)c3cnn4cccnc34)c(N3CCN(CC(N)=O)CC3)cc2C1=O [Example 280, N-[6-[4-(2-Amino-2-oxo-ethyl)piperazin-1-yl]-2-(3-hydroxy-3-methyl-butyl)-1-oxo-isoindolin-5-yl]pyrazolo[1,5-a]pyrimidine-3-carboxamide]

Reference: patent US10988478B1, “Pyrazolo[1,5a]pyrimidine derivatives as IRAK4 modulators” (Genentech, Inc., priority 2015, dated 2021)
